Reference: patent US6054459A, “Substituted 1,2,3,4-tetrahydro-5-nitro-pyrimidines” (priority 1994, dated 2000)
Read-outs that look alike come from different tables or passages of the source.

Columns and labels:
Aphis fabae = assay: Critical concentration test/root-systemic action; assay type: in vivo; conditions: 48 h, 20 ppm in soil, infested after 7 days, evaluated after a further 2 days, read-out: Degree of destruction in % at active compound concentrations in ppm (root-systemic action)
Procedure: Critical concentration test/root-systemic action
Solvent: 4 parts by weight of acetone
(§1) Emulsifier: 1 part by weight of alkylaryl polyglycol ether
To produce a suitable preparation of active compound, 1 part by weight of active compound is mixed with the stated amount of solvent, the stated amount of emulsifier is added and the concentrate is diluted with water to the desired concentration.
The preparation of active compound is intimately mixed with soil. The concentration of the active compound in the preparation is of practically no importance, only the amount by weight of active compound per unit volume of soil, which is given in ppm (=mg/1), being decisive. The treated soil is transferred into pots and these are planted with pregerminated broad beans. The active compound can in this way be taken up from the soil by the roots of the plants and be transported into the leaves.
After a further 2 days, the evaluation is made by counting or estimating the dead animals. The root-systemic action of the active compound is deduced from the mortality figures. It is 100% if all test animals have been killed and 0% if just as many test insects are still alive as in the case of the untreated control.

[1] = tested on: Lucilia cuprina res. larvae; assay: Test with resistant Lucilia cuprina larvae; assay type: in vivo; conditions: for mortality at 100 ppm: Lucilia cuprina, read-out: effectiveness (degree of destruction)
Procedure: Test with resistant Lucilia cuprina larvae
Emulsifier: 35 parts by weight of ethylene glycol monomethyl ether 35 parts by weight of nonylphenol polyglycol ether
To produce a suitable preparation of active compound, three parts by weight of active compound are mixed with seven parts by weight of the abovementioned mixture and the concentrate thus obtained is diluted with water to the particular desired concentration.
About 20 Lucilia cuprina res. larvae are introduced into a test tube which contains approx. 1 cm^3 of horse meat and 0.5 ml of the preparation of active compound. After 24 hours, the degree of destruction is determined.

Ctenocephalides felis = assay: In-vitro flea test (all stages of development); assay type: in vivo; conditions: no adult fleas after 11/2 times the development time
Procedure: In-vitro flea test (all stages of development)
Test object: All stages (eggs, larvae, pupae and adults) of Ctenocephalides felis.
Test method: Bloodmeal is dried overnight in a shallow dish at approximately 70° C. and subsequently screened using a mesh size of 0.63 mm.
1.8 g portions of the bloodmeal which has been prepared in this manner are placed into plastic Petri dishes .o slashed. 9.8 cm.
Using an Eppendorf pipette, 0.2 ml of the substance are added to the 1.8 g portions of bloodmeal (dilution 1:10). This means that for a use concentration of 1 ppm, the aqueous solution must have a concentration of 10 ppm. The solution is applied dropwise and uniformly over the entire area covered by the bloodmeal.
The dishes which have been prepared in this manner are allowed to dry overnight. Using a suitable device, the substance, now in the form of dried lumps of bloodmeal, is broken up and distributed homogeneously in the Petri dish by swirling. To the test dishes which have been prepared in this manner there is now added a spatula--tipful of flea eggs which have been obtained by screening (and which are derived from experimentally infected cats). The dish is sealed using Parafilm and shaken vigorously.
The test materials are incubated at 25° C. and a relative humidity of 85%. At certain intervals, the dishes are examined for stages of development of the fleas.
Test criterion: The criterion for the in-vitro activity of a substance is defined as the inhibition of flea development, or a standstill during the development before reaching the adult stage.
Effective: No adult fleas found after 11/2 times the development time.
Ineffective: Adult fleas found after 11/2 times the development time.

[2] = tested on: Musca domestics, strain WHO(N); assay: Fly test; assay type: in vivo; conditions: 6 h, read-out: activity (flies destroyed)
Procedure: Test animals: Musca domestics, strain WHO(N)
Solvent: 35 parts by weight of ethylene glycol mono-methyl ether
35 parts by weight of nonylphenol polyglycol ether
To produce a suitable formulation, three parts by weight of active compound are mixed with seven parts of the abovementioned solvent-emulsifier mixture and the emulsion concentrate thus obtained is diluted with water to the particular desired concentration.
2 ml of this preparation of active compound are pipetted onto paper filter discs (.o slashed. 9.5 cm) located in Petri dishes of a suitable size. After the discs have dried, 25 test animals are transferred into the Petri dishes and covered.
After 6 hours, the activity of the preparation of active compound is determined. The activity is expressed in %. 100% means that all flies have been destroyed; 0% means that no flies have been destroyed.

Nephotettix cincticeps = assay: Nephotettix test; assay type: in vivo, Nephotettix cincticeps (green rice leafhopper); conditions: 144 h, after 6d, read-out: Degree of destruction in % after 6d; for mortality at 1e-05 %: active compound concentration 0.00001 %; for mortality at 0.0001 %: active compound concentration 0.0001 %; for mortality at 0.001 %: active compound concentration 0.001 %
Procedure: Solvent: 7 parts by weight of dimethylformamide
as §1
To produce a suitable preparation of active compound, 1 part by weight of active compound is mixed with the stated amount of solvent and the stated amount of emulsifier, and the concentrate is diluted with water to the desired concentration.
Rice seedlings (Oryza sativa) are treated by being dipped into the preparation of active compound of the desired concentration and are infested with larvae of the green rice leafhopper (Nephotettix cincticeps) while the seedlings are still moist.
After the desired period of time, the destruction in % is determined. 100% means that all the leafhoppers have been killed; 0% means that none of the leafhoppers have been killed.

Structure (SMILES) | activity compared with the prior art ([1]; 24 hours) | mortality at 100 ppm ([1]; 24 h) | inhibition at 10 ppm (Ctenocephalides felis) | logP (physchem) | further results
CC(C)(C)C(=O)NCCN1CC([N+](=O)[O-])=C2N(Cc3ccc(Cl)nc3)CCN2C1 | – | – | – | – | mortality at 20 ppm (Aphis fabae): 100%
CCOC(=O)NCCN1CC([N+](=O)[O-])=C2N(Cc3ccc(Cl)nc3)CCN2C1 [Example 3, 6,7-dihydro-6-(2-ethoxy-carbonylamino-ethyl)-8-nitro-(5H)-3-(2-chloropyridin-5-yl-methyl)-imidazolidino-[2,3-f] -pyrimidine] | superior activity compared with the prior art | 100% | 100% | – | –
CC(C)NC(=O)OCCN1CC([N+](=O)[O-])=C2N(Cc3ccc(Cl)nc3)CCN2C1 [Example 14] | superior activity compared with the prior art | 100% | – | – | –
CC(C)(C)OC(=O)NCCN1CC([N+](=O)[O-])=C2N(Cc3ccc(Cl)nc3)CCN2C1 [Example 16] | superior activity compared with the prior art | 100% | 100% | – | mortality at 1000 ppm [2]: 100%
O=C(NCCN1CC([N+](=O)[O-])=C2N(Cc3ccc(Cl)nc3)CCN2C1)OCc1ccccc1 [Example 18] | superior activity compared with the prior art | – | 100% | – | mortality at 100 ppm ([1]; 100 ppm, 24 hours): 100%
O=[N+]([O-])C1=C2N(Cc3ccc(Cl)nc3)CCN2CN(CCCCCO)C1 [II-13] | – | – | – | 0.97 | –
O=[N+]([O-])C1=C2N(Cc3ccc(Cl)nc3)CCN2CN(CCCCCCO)C1 [II-14] | – | – | – | 0.74 | –
O=[N+]([O-])C1=C2N(Cc3cnc(Cl)s3)CCN2CN(CCCCO)C1 [II-17] | – | – | – | 0.58 | –
CNC(=O)OCCCN1CC([N+](=O)[O-])=C2N(Cc3ccc(Cl)nc3)CCN2C1 [drawing 135] | – | – | – | – | mortality at 1e-05 % (Nephotettix cincticeps): 100%; mortality at 0.0001 % (Nephotettix cincticeps): 100%; mortality at 0.001 % (Nephotettix cincticeps): 100%
CC(=O)OCCCN1CC([N+](=O)[O-])=C2N(Cc3ccc(Cl)nc3)CCN2C1 [drawing 136] | – | – | – | – | mortality at 1e-05 % (Nephotettix cincticeps): 100%; mortality at 0.0001 % (Nephotettix cincticeps): 100%; mortality at 0.001 % (Nephotettix cincticeps): 100%
